Data on two compounds can be found in patent US11179445B2, “Pharmaceutical composition and biomaterial comprising fusion peptide in which bone tissue-selective peptide bound to parathyroid hormone (PTH) or fragment thereof” (Nano Intelligent Biomedical Engineering Corporation Co. Ltd., priority 2017, dated 2021).

The structures appear in SMILES notation.

Data set [1] is described as follows: Concentration of calcium in blood of osteoporosis-induced mice (QuantiChrom calcium assay kit). The format is in vivo. Conditions: ovariectomized ICR mice; PTH 20 μg/kg daily for 3 months, fusion peptide 80 pg/kg weekly for 6 months. How it is done: Six week-old ICR mice were anesthetized by intramuscular injection using a mixture of 10 mg/kg of xylazine (Rompun®, Bayer, Korea) and 100 mg/kg of ketamine (Ketalar®, Yuhan Co., Ltd., Korea) and then the ovaries present below the bilateral kidneys were entirely removed carefully. Suturing was performed by an ordinary method and 3 mg/kg of gentamicin (Gentamycin®, JW Pharmaceutical Corporation, Korea) was intramuscularly injected.
Three months after the ovariectomy, whether or not bone loss occurred was checked. […] The change in bone density was evaluated, as compared with a group not treated with osteoporosis.
The concentration of calcium in blood was determined using a QuantiChrom™ calcium assay kit (Bioassay Systems, Hayward, Calif.). […] One of the effects of PTH on the human body is to increase the concentration of calcium in blood by affecting bones and kidneys. Therefore, long-term administration of PTH causes side effects that induce hypercalcemia.

The conditions of data set [2]: cited from earlier work.

On to `CC[C@H](C)[C@H](NC(=O)[C@H](CCC(=O)O)NC(=O)[C@H](CO)NC(=O)[C@@H](NC(=O)[C@@H](N)CO)C(C)C)C(=O)N[C@@H](CCC(N)=O)C(=O)N[C@@H](CC(C)C)C(=O)N[C@@H](CCSC)C(=O)N[C@@H](Cc1cnc[nH]1)C(=O)N[C@@H](CC(N)=O)C(=O)N[C@@H](CC(C)C)C(=O)NCC(=O)N[C@@H](CCCCN)C(=O)N[C@@H](Cc1cnc[nH]1)C(=O)N[C@@H](CC(C)C)C(=O)N[C@@H](CC(N)=O)C(=O)N[C@@H](CO)C(=O)N[C@@H](CCSC)C(=O)N[C@@H](CCC(=O)O)C(=O)N[C@@H](CCCN=C(N)N)C(=O)N[C@H](C(=O)N[C@@H](CCC(=O)O)C(=O)N[C@@H](Cc1c[nH]c2ccccc12)C(=O)N[C@@H](CC(C)C)C(=O)N[C@@H](CCCN=C(N)N)C(=O)N[C@@H](CCCCN)C(=O)N[C@@H](CCCCN)C(=O)N[C@@H](CC(C)C)C(=O)N[C@@H](CCC(N)=O)C(=O)N[C@@H](CC(=O)O)C(=O)N[C@H](C(=O)N[C@@H](Cc1cnc[nH]1)C(=O)N[C@@H](CC(N)=O)C(=O)N[C@@H](Cc1ccccc1)C(=O)O)C(C)C)C(C)C` [PTH, reference compound], for which the “concentration of calcium in blood” value in data set [1] is “increased the concentration of calcium at one month”.

Usually half-life stands for how long it takes for the measured level to halve. For the compound `CC[C@H](C)[C@H](NC(=O)[C@H](CCC(=O)O)NC(=O)[C@H](CO)NC(=O)[C@@H](NC(=O)[C@@H](N)CO)C(C)C)C(=O)N[C@@H](CCC(N)=O)C(=O)N[C@@H](CC(C)C)C(=O)N[C@@H](CCSC)C(=O)N[C@@H](Cc1cnc[nH]1)C(=O)N[C@@H](CC(N)=O)C(=O)N[C@@H](CC(C)C)C(=O)NCC(=O)N[C@@H](CCCCN)C(=O)N[C@@H](Cc1cnc[nH]1)C(=O)N[C@@H](CC(C)C)C(=O)N[C@@H](CC(N)=O)C(=O)N[C@@H](CO)C(=O)N[C@@H](CCSC)C(=O)N[C@@H](CCC(=O)O)C(=O)N[C@@H](CCCN=C(N)N)C(=O)N[C@H](C(=O)N[C@@H](CCC(=O)O)C(=O)N[C@@H](Cc1c[nH]c2ccccc12)C(=O)N[C@@H](CC(C)C)C(=O)N[C@@H](CCCN=C(N)N)C(=O)N[C@@H](CCCCN)C(=O)N[C@@H](CCCCN)C(=O)N[C@@H](CC(C)C)C(=O)N[C@@H](CCC(N)=O)C(=O)N[C@@H](CC(=O)O)C(=O)N[C@H](C(=O)N[C@@H](Cc1cnc[nH]1)C(=O)N[C@@H](CC(N)=O)C(=O)N[C@@H](Cc1ccccc1)C(=O)O)C(C)C)C(C)C` [Forteo], the half-life in data set [2] (subcutaneous injection once a day) is not above 1 h. Moreover, the side effects entry in data set [2] (upon use for a long time of 2 years or longer) is “hypercalcemia and even a high incidence of osteosarcoma”.
